# Experimental data published in ChEMBL document CHEMBL1250451, “Mechanistic insights into a Ca2+-dependent family of alpha-mannosidases in a human gut symbiont” (Nat Chem Biol, 2010).
# The source made the active and inactive calls. No cut-off for these calls is given here.
# Assays:
# Format in all cases: protein assay
# [1] = molecular target: T1, Alpha-1,2-mannosidase (BT_3990) (Bacteroides thetaiotaomicron) (UniProt Q8A0N1); test: Activity of Bacteroides thetaiotaomicron GH92 alpha-mannosidase GH92 alpha-mannosidase 3990 assessed as mannose release at 1 mM after 16 hrs by HPLC relative to untreated control after 16 hrs by HPLC
# T1 sequence (whole entry): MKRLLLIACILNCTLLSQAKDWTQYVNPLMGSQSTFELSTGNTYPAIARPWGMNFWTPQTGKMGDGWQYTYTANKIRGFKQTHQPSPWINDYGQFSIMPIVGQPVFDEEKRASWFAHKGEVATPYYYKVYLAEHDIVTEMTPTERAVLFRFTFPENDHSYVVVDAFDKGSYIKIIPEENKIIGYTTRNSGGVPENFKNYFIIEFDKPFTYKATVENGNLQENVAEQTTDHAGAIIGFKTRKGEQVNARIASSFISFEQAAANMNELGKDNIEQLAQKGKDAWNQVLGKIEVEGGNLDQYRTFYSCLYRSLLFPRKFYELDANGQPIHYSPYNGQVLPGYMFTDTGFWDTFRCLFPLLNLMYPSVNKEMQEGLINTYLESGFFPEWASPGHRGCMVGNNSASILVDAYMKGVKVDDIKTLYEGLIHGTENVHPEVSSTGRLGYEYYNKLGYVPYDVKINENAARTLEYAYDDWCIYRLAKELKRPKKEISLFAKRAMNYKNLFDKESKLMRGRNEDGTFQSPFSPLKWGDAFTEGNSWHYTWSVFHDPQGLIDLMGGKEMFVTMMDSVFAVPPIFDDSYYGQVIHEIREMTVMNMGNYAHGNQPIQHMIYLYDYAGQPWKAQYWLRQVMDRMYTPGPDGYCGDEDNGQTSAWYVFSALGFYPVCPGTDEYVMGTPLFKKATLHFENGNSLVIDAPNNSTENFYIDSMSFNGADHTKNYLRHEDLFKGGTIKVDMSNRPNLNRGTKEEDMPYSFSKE
# [2] = molecular target: T2, Alpha-1,2-mannosidase (BT_3994) (Bacteroides thetaiotaomicron) (UniProt Q8A0M7); test: Activity of Bacteroides thetaiotaomicron GH92 alpha-mannosidase GH92 alpha-mannosidase 3994 assessed as mannose release at 1 mM after 16 hrs by HPLC relative to untreated control after 16 hrs by HPLC
# T2 sequence (whole entry): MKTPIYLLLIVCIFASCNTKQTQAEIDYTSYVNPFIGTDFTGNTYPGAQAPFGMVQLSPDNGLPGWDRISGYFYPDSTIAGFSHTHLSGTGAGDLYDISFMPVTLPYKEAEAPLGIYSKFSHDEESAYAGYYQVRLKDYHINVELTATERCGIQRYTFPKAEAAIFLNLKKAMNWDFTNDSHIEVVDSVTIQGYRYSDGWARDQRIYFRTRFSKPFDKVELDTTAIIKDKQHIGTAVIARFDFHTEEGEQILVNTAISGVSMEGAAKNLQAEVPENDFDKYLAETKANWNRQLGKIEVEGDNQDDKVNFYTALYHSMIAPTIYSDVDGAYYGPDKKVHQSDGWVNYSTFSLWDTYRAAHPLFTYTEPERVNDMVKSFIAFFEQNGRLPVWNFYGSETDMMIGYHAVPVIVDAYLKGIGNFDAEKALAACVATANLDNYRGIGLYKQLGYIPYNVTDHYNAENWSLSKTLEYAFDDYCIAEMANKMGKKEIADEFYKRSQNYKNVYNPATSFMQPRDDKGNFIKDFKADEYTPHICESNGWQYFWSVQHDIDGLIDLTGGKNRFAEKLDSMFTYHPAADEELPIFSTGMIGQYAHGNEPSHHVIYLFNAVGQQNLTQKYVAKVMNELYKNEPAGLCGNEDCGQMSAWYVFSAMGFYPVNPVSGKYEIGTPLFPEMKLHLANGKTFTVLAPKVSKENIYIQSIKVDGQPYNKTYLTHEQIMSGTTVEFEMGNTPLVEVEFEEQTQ
# [3] = molecular target: T3, Glycoside hydrolase family 92 (BT_3962) (Bacteroides thetaiotaomicron) (UniProt Q8A0Q9); test: Activity of Bacteroides thetaiotaomicron GH92 alpha-mannosidase GH92 alpha-mannosidase 3962 assessed as mannose release at 1 mM after 16 hrs by HPLC relative to untreated control after 16 hrs by HPLC
# T3 sequence (whole entry): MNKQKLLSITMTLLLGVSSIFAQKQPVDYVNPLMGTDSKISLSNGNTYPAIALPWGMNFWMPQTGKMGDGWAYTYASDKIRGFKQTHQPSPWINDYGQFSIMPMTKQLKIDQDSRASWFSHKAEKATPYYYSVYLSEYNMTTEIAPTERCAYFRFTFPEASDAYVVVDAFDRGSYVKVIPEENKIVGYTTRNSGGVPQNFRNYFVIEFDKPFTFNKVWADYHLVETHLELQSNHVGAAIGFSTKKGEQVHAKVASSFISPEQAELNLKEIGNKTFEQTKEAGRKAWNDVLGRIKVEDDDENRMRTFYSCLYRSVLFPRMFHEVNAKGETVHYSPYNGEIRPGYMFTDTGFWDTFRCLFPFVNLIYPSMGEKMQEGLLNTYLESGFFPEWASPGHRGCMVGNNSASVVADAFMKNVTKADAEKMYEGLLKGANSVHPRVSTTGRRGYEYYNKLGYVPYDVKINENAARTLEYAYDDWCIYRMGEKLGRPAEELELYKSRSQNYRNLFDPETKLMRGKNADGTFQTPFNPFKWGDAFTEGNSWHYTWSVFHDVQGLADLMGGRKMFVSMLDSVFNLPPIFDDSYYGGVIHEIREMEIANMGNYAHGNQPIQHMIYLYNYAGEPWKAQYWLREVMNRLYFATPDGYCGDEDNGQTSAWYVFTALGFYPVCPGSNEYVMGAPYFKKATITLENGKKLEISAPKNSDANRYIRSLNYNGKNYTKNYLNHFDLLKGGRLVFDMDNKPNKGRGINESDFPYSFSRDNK
Activity [1],Activity [2],Activity [3],Structure (SMILES)
100%,inactive,100%,OC[C@H]1O[C@H](O[C@H]2[C@@H](O)[C@H](O)[C@@H](CO)O[C@@H]2O)[C@@H](O)[C@@H](O)[C@@H]1O
0.036%,–,inactive,OC[C@H]1O[C@H](O[C@@H]2[C@H](O)[C@@H](O)O[C@H](CO)[C@H]2O)[C@@H](O)[C@@H](O)[C@@H]1O
0.022%,20%,0.042%,OC[C@H]1O[C@H](O[C@H]2[C@H](O)[C@H](O)[C@@H](O)O[C@@H]2CO)[C@@H](O)[C@@H](O)[C@@H]1O
inactive,inactive,0.0031%,OC[C@H]1O[C@H](OC[C@H]2O[C@H](O)[C@@H](O)[C@@H](O)[C@@H]2O)[C@@H](O)[C@@H](O)[C@@H]1O
